Test results published in the NIST ThermoML archive (doi:10.1016/j.jct.2019.01.014).
“And” between values parts separate entries of the source, which are not always exact repeats. Equal entries are not always repeated. ± gives the expanded uncertainty stated by the source.

How the values were obtained:
[1] = molar enthalpy of vaporization or sublimation; conditions: Crystal, Static calorimetry
[2] = Crystal, Calculated from knudsen effusion weight loss

O=C1CCCCCN1 [1-aza-2-cycloheptanone]
Conditions	molar enthalpy [kcal/mol]	vapor or sublimation pressure
[1], 350.03 K	20.9 ± 1.17	–
[2], 293.7 K	–	0.0001506 ± 6e-05 kPa and 0.0001518 ± 6e-05 kPa and 0.0001508 ± 6e-05 kPa
[2], 295.7 K	–	0.0001889 ± 6e-05 kPa and 0.000183 ± 6e-05 kPa and 0.000182 ± 6e-05 kPa
[2], 296.6 K	–	0.0002196 ± 6.1e-05 kPa and 0.0002191 ± 6.1e-05 kPa and 0.0002211 ± 6.1e-05 kPa
[2], 298.19 K	–	0.0002627 ± 6.1e-05 kPa and 0.0002587 ± 6.1e-05 kPa and 0.0002716 ± 6.1e-05 kPa
[2], 299.67 K	–	0.0003254 ± 6.1e-05 kPa and 0.0003117 ± 6.1e-05 kPa and 0.0003173 ± 6.1e-05 kPa
[2], 301.1 K	–	0.0003753 ± 6.2e-05 kPa and 0.0003757 ± 6.2e-05 kPa and 0.0003791 ± 6.2e-05 kPa
[2], 302.69 K	–	0.0004428 ± 6.2e-05 kPa and 0.0004363 ± 6.2e-05 kPa and 0.0004403 ± 6.2e-05 kPa
[2], 304.15 K	–	0.0005432 ± 6.3e-05 kPa and 0.0005228 ± 6.3e-05 kPa and 0.0005341 ± 6.3e-05 kPa
[2], 305.59 K	–	0.0006305 ± 6.4e-05 kPa and 0.0006272 ± 6.4e-05 kPa and 0.0006374 ± 6.4e-05 kPa
[2], 307.18 K	–	0.0007318 ± 6.5e-05 kPa and 0.0007265 ± 6.5e-05 kPa and 0.0007404 ± 6.6e-05 kPa
[2], 308.66 K	–	0.0008828 ± 6.8e-05 kPa and 0.0009064 ± 6.8e-05 kPa and 0.0008695 ± 6.8e-05 kPa
[2], 310.1 K	–	0.001048 ± 9.6e-05 kPa and 0.001045 ± 9.6e-05 kPa and 0.001038 ± 9.5e-05 kPa

S=C1CCCCCN1 [azepane-2-thione]
Conditions	molar enthalpy [kcal/mol]	vapor or sublimation pressure
[1], 386.11 K	23.5 ± 1.29	–
[2], 318.18 K	–	9.46e-05 ± 6e-05 kPa and 9.18e-05 ± 6e-05 kPa and 9.11e-05 ± 6e-05 kPa
[2], 320.16 K	–	0.0001201 ± 6e-05 kPa and 0.0001211 ± 6e-05 kPa and 0.0001173 ± 6e-05 kPa
[2], 322.08 K	–	0.0001485 ± 6e-05 kPa and 0.0001484 ± 6e-05 kPa and 0.0001469 ± 6e-05 kPa
[2], 324.2 K	–	0.0001813 ± 6e-05 kPa and 0.0001821 ± 6e-05 kPa and 0.0001901 ± 6e-05 kPa
[2], 326.15 K	–	0.0002346 ± 6.1e-05 kPa and 0.0002296 ± 6.1e-05 kPa and 0.0002407 ± 6.1e-05 kPa
[2], 328.08 K	–	0.0002879 ± 6.1e-05 kPa and 0.0002891 ± 6.1e-05 kPa and 0.0002869 ± 6.1e-05 kPa
[2], 330.18 K	–	0.0003569 ± 6.1e-05 kPa and 0.0003533 ± 6.1e-05 kPa and 0.0003704 ± 6.1e-05 kPa
[2], 332.12 K	–	0.0004537 ± 6.2e-05 kPa and 0.0004424 ± 6.2e-05 kPa and 0.0004677 ± 6.2e-05 kPa
[2], 334.07 K	–	0.0005566 ± 6.3e-05 kPa and 0.0005557 ± 6.3e-05 kPa and 0.0005502 ± 6.3e-05 kPa
[2], 336.18 K	–	0.0006862 ± 6.5e-05 kPa and 0.0006759 ± 6.5e-05 kPa and 0.0007079 ± 6.5e-05 kPa
[2], 338.15 K	–	0.000897 ± 6.8e-05 kPa and 0.0008658 ± 6.7e-05 kPa and 0.0008434 ± 6.7e-05 kPa
[2], 340.08 K	–	0.001048 ± 9.6e-05 kPa and 0.001057 ± 9.7e-05 kPa and 0.001058 ± 9.7e-05 kPa
